pEC50: −log10 of the molar value. Read-outs that look alike come from different tables or passages of the source.
Key:
[1] = molecular target: human MOR membrane preparation (Homo sapiens, UniProt P35372); test: biochemical
[2] = Metabolite identification in authentic postmortem urine samples by LC-HRMS/MS; conditions: for Urine #1 peak area with β-gluc: postmortem urine case #1, after β-glucuronidase hydrolysis; for Urine #1 peak area with β-gluc / Urine #1 peak area / Urine #2 peak area with β-gluc / Urine #2 peak area: ND not detected; for Urine #1 peak area: postmortem urine case #1, no hydrolysis; for Urine #1 peak area / Urine #2 peak area: positive ionisation mode; for Urine #2 peak area with β-gluc: postmortem urine case #2, after β-glucuronidase hydrolysis; for portion of the total metabolites' signal in urine: both urine samples; for Urine #2 peak area: postmortem urine case #2, no hydrolysis
Method: (§1) Samples were thawed at room temperature. A 100 µL aliquot was mixed with 200 µL of acetonitrile and centrifuged for 10 min at 15,000 g at room temperature. The supernatants were evaporated to dryness under nitrogen at 37 °C. The residues were reconstituted in 100 µL of a mixture containing 95% mobile phase A and 5% mobile phase B (v/v). After centrifugation under the same conditions, the supernatants were transferred to autosampler vials with glass inserts. A 10 µL volume was injected into the chromatographic system for analysis.
(§2) To investigate glucuronic acid conjugation, 100 µL of urine was mixed with 10 µL of 10 mol/L ammonium acetate (pH 5.0) and 100 µL of β-glucuronidase (5000 units), then incubated at 37 °C for 90 min. Subsequently, 400 µL of ice-cold acetonitrile was added to the mixtures, which were centrifuged for 10 min at 15,000 g at room temperature. The supernatants were evaporated to dryness under nitrogen at 37 °C and reconstituted in 100 µL of a mixture containing 95% mobile phase A and 5% mobile phase B (v/v). After centrifugation under the same conditions, the supernatants were transferred to autosampler vials with glass inserts. A 10 µL volume was injected into the chromatographic system for analysis.
(§3) The analyses were conducted by liquid chromatography-high-resolution tandem mass spectrometry (LC-HRMS/MS) with a DIONEX UltiMate 3000 liquid chromatographer coupled to a Q Exactive quadrupole-Orbitrap hybrid high-resolution mass spectrometer equipped with a heated electrospray ionisation (HESI) source from Thermo Scientific (Waltham, Massachusetts, USA).
(§4) The compounds were separated using a Kinetex Biphenyl column (150 × 2.1 mm, 2 μm) from Phenomenex (Torrance, California, USA). The separation was achieved using mobile phases A and B at a flow rate of 0.4 mL/min. The gradient elution program was as follows: 2% B was held for 2 min, then increased to 25% B over 12 min, followed by a rapid increase to 95% B within 2 min, and held for 4 min. Subsequently, the initial conditions were restored within 0.1 min and maintained for 3.9 min. The total chromatographic run time was 24 min. Throughout the analysis, the column oven temperature was maintained at 37 ± 1 °C, while the autosampler temperature was set to 10 ± 1 C.
(§5) All samples were analysed in both positive- and negative-ion modes, requiring two separate injections while maintaining the same HESI conditions. […] Prior to each analytical session, mass calibration was performed using certified calibration solutions in both positive and negative ion modes. To enhance accuracy, a lock mass list was compiled for positive- (m/z 279.0933, 144.9821, 146.9803) and negative ion modes (m/z 265.1479, 162.9824, 248.9604).
(§6) The mass spectrometer acquired from 1 to 20 min of the chromatographic run in full-scan HRMS (FullMS)/data-dependent MS/MS (ddMS^2) mode. The FullMS settings were as follows: range, m/z 100 to 650; resolution at full width at half maximum at m/z 200, 70,000; automatic gain control target, 1 × 10^6; and maximum injection time, 200 ms. For ddMS^2, the settings were: automatic gain control target, 2 × 10^5; maximum injection time, 64 ms; isolation window, m/z 1.2; resolution, 17,500; and stepped normalised collision energy, 40, 70, and 90 a.u. A maximum of five ddMS^2 scans were triggered for each FullMS scan, with a minimum intensity of 10^4 and dynamic exclusion of 2.0 s..
(§7) LC-HRMS/MS data were processed with Thermo Scientific Compound Discoverer in a single analysis.

µ-opioid receptor = conditions: cited from earlier work
mouse [3] = system: mouse; design: method as in Janssen and Jageneau 2011; conditions: ref Janssen and Jageneau 2011; cited from earlier work
[4] = molecular target: human KOR membrane preparation (Homo sapiens, UniProt P41145); test: HTRF-based GTP Gi binding assay, KOR; format: biochemical
[5] = molecular target: human DOR membrane preparation (Homo sapiens, UniProt P41143); test: HTRF-based GTP Gi binding assay, DOR; format: biochemical
[6] = Quantification in postmortem blood and urine of dipyanone-positive forensic cases; conditions: for concentration in blood, case #2: autoptic heart blood; for concentration in urine, case #2: autoptic urine
mouse [7] = system: mouse; design: method as in Bockmühl and Ehrhart 1949; conditions: mouse tail pinch test; ref Bockmühl and Ehrhart 1949; cited from earlier work
[8] = human, in vivo
Method: as §1, §2, §3, §4, §5, §6, §7

[9] = system: ten-donor-pooled cryopreserved human hepatocytes; test: Human hepatocyte incubation, LC-HRMS/MS metabolite identification; format: in vitro ADME; conditions: for Hepatocytes peak area: LC-HRMS, positive ionisation mode, three hours of incubation with human hepatocytes, ND not detected; for portion of the total metabolites' signal: hepatocyte incubation, three hours
Method: Dipyanone incubations with human hepatocytes were carried out as previously described (Carlier et al. [2022]; Taoussi et al. [2024]). Briefly, the hepatocytes were thawed in 50 mL of thawing medium at 37 °C. After centrifugation (100 g, 5 min), the supernatant was discarded and the pellet was resuspended in 50 mL of SWM at 37 °C. Following a second centrifugation (100 g, 5 min), the supernatant was removed, and the pellet was resuspended in 2 mL of SWM at 37 °C. Cell viability was determined using the trypan blue exclusion method, and the SWM volume was adjusted to reach a concentration of 2 × 10^6 cells/mL. In sterile 24-well culture plates, 250 µL hepatocyte suspension was gently mixed with 250 µL of dipyanone (20 µmol/L in SWM). The plates were incubated at 37 °C, and reactions were stopped after 0 or 3 h with 500 µL ice-cold acetonitrile, followed by centrifugation (15,000 g, 10 min). Negative (without SWM, hepatocytes, or dipyanone) and positive controls (diclofenac incubation) were incubated for 0 and 3 h under the same conditions to exclude nonspecific reactions and ensure proper metabolic activity. Incubates were stored at – 80° until analysis.
A 100 µL volume of incubate was mixed with 100 µL of acetonitrile and centrifuged for 10 min, 15,000 g at room temperature for protein precipitation (acetonitrile:SWM, 3:1, v/v). The supernatant was dried under a nitrogen stream at 37 °C. […] Again, the solution was centrifuged (10 min, 15,000 g) at room temperature. The resulting supernatant was transferred into vials with a glass insert, and 10 µL was injected into the chromatographic system for analysis.
The total chromatographic run time was 24 min.

[10] = detected alongside other NSOs; ref Vandeputte et al. 2023; cited from earlier work
mice = conditions: ref Scott et al. 1946, 1947; cited from earlier work
[11] = design: method as in Scott et al. 1947; conditions: ref Scott et al. 1947; cited from earlier work

Chain of human DOR membrane preparation (P41143 whole entry): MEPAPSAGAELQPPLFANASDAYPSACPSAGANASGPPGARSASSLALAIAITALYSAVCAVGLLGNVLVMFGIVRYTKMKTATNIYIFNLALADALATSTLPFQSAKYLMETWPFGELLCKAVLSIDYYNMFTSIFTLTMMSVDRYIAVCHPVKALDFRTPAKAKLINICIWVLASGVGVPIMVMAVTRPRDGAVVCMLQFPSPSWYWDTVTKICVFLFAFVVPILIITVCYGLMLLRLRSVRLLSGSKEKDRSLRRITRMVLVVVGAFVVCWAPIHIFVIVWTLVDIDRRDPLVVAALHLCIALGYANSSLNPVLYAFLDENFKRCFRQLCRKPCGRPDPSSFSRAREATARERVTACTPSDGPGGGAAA
Chain of human KOR membrane preparation (P41145 whole entry): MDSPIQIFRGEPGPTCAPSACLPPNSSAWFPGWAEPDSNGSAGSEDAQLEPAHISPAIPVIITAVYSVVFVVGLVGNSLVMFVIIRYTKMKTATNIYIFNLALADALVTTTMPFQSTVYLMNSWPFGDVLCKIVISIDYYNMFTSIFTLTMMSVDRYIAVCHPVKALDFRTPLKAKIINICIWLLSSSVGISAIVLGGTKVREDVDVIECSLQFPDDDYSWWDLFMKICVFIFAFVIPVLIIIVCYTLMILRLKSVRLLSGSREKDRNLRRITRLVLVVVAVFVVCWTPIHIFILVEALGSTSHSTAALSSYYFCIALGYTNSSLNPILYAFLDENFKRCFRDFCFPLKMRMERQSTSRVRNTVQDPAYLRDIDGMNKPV
Chain of human MOR membrane preparation (P35372 whole entry): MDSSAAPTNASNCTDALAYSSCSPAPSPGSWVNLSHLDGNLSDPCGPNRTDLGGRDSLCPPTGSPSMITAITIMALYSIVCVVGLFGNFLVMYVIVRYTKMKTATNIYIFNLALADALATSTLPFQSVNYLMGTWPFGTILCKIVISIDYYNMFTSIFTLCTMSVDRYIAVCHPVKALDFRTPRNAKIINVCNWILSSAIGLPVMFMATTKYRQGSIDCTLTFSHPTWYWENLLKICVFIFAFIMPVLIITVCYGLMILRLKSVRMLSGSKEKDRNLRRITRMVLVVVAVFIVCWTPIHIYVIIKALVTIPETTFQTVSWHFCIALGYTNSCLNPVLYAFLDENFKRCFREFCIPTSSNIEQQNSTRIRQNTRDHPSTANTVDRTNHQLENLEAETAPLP

In the case of CCC(=O)C(CC(C)N1CCCC1)(c1ccccc1)c1ccccc1 (centres unmarked) [Dipyanone, 4,4-diphenyl-6-(1’-pyrrolidinyl)-3-heptanone], the pEC50 [1] was 7.01, the “Urine #1 peak area with β-gluc” value [2] was 1.3 × 10^10 and the “Urine #1 peak area” value [2] was 1.1 × 10^10. The “Urine #2 peak area with β-gluc” value [2] was 8.0 × 10^9, the “efficacy (Emax) compared to hydromorphone at the µ-opioid receptor” value (µ-opioid receptor) was 155% and the pEC50 (µ-opioid receptor; read-out: EC50 at MOR, β-arrestin2 recruitment assay) was 7.40. The “median effective dose, mouse hot plate assay” value (mouse [3]) was 6.82 mg/kg, the pEC50 [4] was 6.42 and the Emax ([4]; normalised to U-50488, mean (95% CI), n = 3, read-out: KOR Emax relative to U-50488) was 13%. For the same compound, the pEC50 [5] was 5.97, the Emax ([5]; normalised to SNC-80, mean (95% CI), n = 3, read-out: DOR Emax relative to SNC-80) was 56% and the “concentration in urine, four dipyanone-related fatalities” value ([6]; Germany 2022 and 2023, own unpublished data) was 80 to 5500 ng/mL. The “concentration in blood, case #2” value [6] was 80 ng/mL, the “concentration in blood, case #1” value ([6]; postmortem femoral blood) was 720 ng/mL and the “analgesic properties relative to pethidine” value (mouse [7]) was 5–10 times. For the same compound, the “Urine #2 peak area” value [8] was 1.3 × 10^10, the Hepatocytes peak area [9] was 7.7 × 10^8 and the “LC-HRMS/MS peak area after incubation relative to its original value” ([9]; after three hours of incubation, compared to the controls) was “approximately one-sixth”. The “blood concentration, postmortem case in the USA” value [10] was 370 ng/mL, the LD50 in mice (mice) was ~ 17 mg/kg and the analgesic threshold [11] was 1 to 2 mg/kg.

For CC=C1N(CCCCO)C(C)CC1(c1ccccc1)c1ccccc1 (centres unmarked) [M12, 4’-[2-ethylidene-5-methyl-3,3-diphenylpyrrolidin-1-yl]butan-1’-ol], the “portion of the total metabolites' signal in urine” value [2] was 23–26%, the “Urine #1 peak area with β-gluc” value [2] was 3.4 × 10^9 and the “Urine #1 peak area” value [2] was 2.3 × 10^9. For the same compound, the “Urine #2 peak area with β-gluc” value [2] was 1.7 × 10^9, the “Urine #2 peak area” value [2] was 2.1 × 10^9 and the Hepatocytes peak area [9] was 1.8 × 10^7. The “portion of the total metabolites' signal” value [9] was 50%.

For mitragynine, the “concentration in blood, case #2” value [6] was 160 ng/mL and the “concentration in urine, case #2” value [6] was > 200 ng/mL.

With CNC1(c2ccccc2F)CCCCC1=O (centres unmarked) [2-fluoro-deschloroketamine] the “concentration in blood, case #2” value [6] was < 1.0 ng/mL and the “concentration in urine, case #2” value [6] was > 50 ng/mL.

In the case of CC[C@@H]1CN2CC[C@@]3(O)C(=Nc4cccc(OC)c43)[C@@H]2C[C@@H]1/C(=C\OC)C(=O)OC [7-hydroxymitragynine], the “concentration in blood, case #2” value [6] was 4.7 ng/mL and the “concentration in urine, case #2” value [6] was > 200 ng/mL.

For CCNC1(c2ccccc2)CCCCC1=O (centres unmarked) [deschloro-N-ethylketamine], the “concentration in blood, case #2” value [6] was 46 ng/mL and the “concentration in urine, case #2” value [6] was > 50 ng/mL.

For CC(N)Cc1ccccc1F (centres unmarked) [2-fluoroamphetamine], the “concentration in blood, case #2” value [6] was 24 ng/mL.

In the case of CC=C1N(CCCC(=O)O)C(C)CC1(c1ccccc1)c1ccccc1 (centres unmarked) [M13, 4’-[2-ethylidene-5-methyl-3,3-diphenylpyrrolidin-1-yl]butanoic acid], the “portion of the total metabolites' signal in urine” value [2] was 61%, the “Urine #1 peak area with β-gluc” value [2] was 5.7 × 10^9 and the “Urine #1 peak area” value [2] was 5.4 × 10^9. For the same compound, the “Urine #2 peak area with β-gluc” value [2] was 3.3 × 10^9, the “Urine #2 peak area” value [2] was 5.6 × 10^9 and the Hepatocytes peak area [9] was 9.5 × 10^6. For the same compound, the “portion of the total metabolites' signal” value [9] was 27%.

For 2-fluoromethamphetamine, the “concentration in blood, case #2” value [6] was 96 ng/mL.

For CCC(=O)C(CC(C)N(C)C)(c1ccccc1)c1ccccc1 (centres unmarked) [methadone, reference compound], the “median effective dose, mouse hot plate assay” value (mouse [3]) is given as 5.18 mg/kg, the LD50 in mice (mice) is given as ~ 17 mg/kg and the analgesic threshold [11] is given as 1 to 2 mg/kg.

For CNC1(c2ccccc2)CCCCC1=O (centres unmarked) [deschloroketamine], the “concentration in blood, case #2” value [6] was 1.0 ng/mL and the “concentration in urine, case #2” value [6] was 23 ng/mL.

Source: article PMC12185669 (Archives of Toxicology, 2025)
